In US8143293B2, “Kinase inhibitors useful for the treatment of myleoprolific diseases and other proliferative diseases” (Deciphera Pharmaceuticals, LLC, priority 2007, dated 2012):

Columns and labels:
[1] = target: T1, BaF3 cells transfected with wild type p210 BCR-Abl (Homo sapiens, UniProt P00519); assay: Ba/F3 p210 whole cell proliferation assay; assay type: cell-based; details: 72 hours, Cell Titer Blue; read-out: Whole Cell Antiproliferation IC50, Ba/F3 p210 whole cell proliferation assay
T1 construct: fused on or other part: P11274 (Breakpoint cluster region protein)
Protocol: (§1) BaF3 cells (parental or transfected with the following: wild type p210 BCR-Abl and T315I p210 BCR-Abl was obtained from Professor Richard Van Etten (New England Medical Center, Boston, Mass.). Briefly, cells were grown in RPMI 1640 supplemented with 10% characterized fetal bovine serum (HyClone, Logan, Utah) at 37 degrees Celsius, 5% CO2, 95% humidity. Cells were allowed to expand until reaching 80% saturation at which point they were subcultured or harvested for assay use.
(§2) A serial dilution of test compound was dispensed into a 96 well black clear bottom plate (Corning, Corning, N.Y.). For each cell line, three thousand cells were added per well in complete growth medium. Plates were incubated for 72 hours at 37 degrees Celsius, 5% CO2, 95% humidity. At the end of the incubation period Cell Titer Blue (Promega, Madison, Wis.) was added to each well and an additional 4.5 hour incubation at 37 degrees Celsius, 5% CO2, 95% humidity was performed. Plates were then read on a BMG Fluostar Optima (BMG, Durham, N.C.) using an excitation of 544 nm and an emission of 612 nm. Data was analyzed using Prism software (Graphpad, San Diego, Calif.) to calculate IC50's.

[2] = target: T2, C-Met kinase (SEQ ID NO:10) (Homo sapiens, UniProt P08581); assay: C-Met kinase (SEQ ID NO:10) assay, pyruvate kinase/lactate dehydrogenase coupled; details: 0.5 h preincubation, ATP 100 μM; read-out: Biochemical IC50, c-Met Enzyme Assay
T2 construct: 956-1390, from Invitrogen, catalogue #PV3143; His6 (N-terminal leader MSYYHHHHHH... with TEV and thrombin sites) (N); purchased Invitrogen PV3143
Protocol: C-Met Kinase (SEQ ID NO:10) Assay
Activity of C-Met kinase (SEQ ID NO:10) was determined by following the production of ADP from the kinase reaction through coupling with the pyruvate kinase/lactate dehydrogenase system (e.g., Schindler, et al. Science (2000) 289, 1938-1942). In this assay, the oxidation of NADH (thus the decrease at A340 nm) was continuously monitored spectrophometrically. The reaction mixture (100 μl) contained C-Met (c-Met residues; 956-1390, from Invitrogen, catalogue #PV3143, […]), polyE4Y (1 mg/ml), MgCl2 (10 mM), pyruvate kinase (4 units), lactate dehydrogenase (0.7 units), phosphoenol pyruvate (1 mM), and NADH (0.28 mM) in 90 mM Tris buffer containing 0.25 mM DTT, 0.2% octyl-glucoside and 1% DMSO, pH 7.5. Test compounds were incubated with C-Met (SEQ ID NO:10) and other reaction reagents at 22° C. for 0.5 h before ATP (100 μM) was added to start the reaction. The absorption at 340 nm was monitored continuously for 2 hours at 30° C. on Polarstar Optima plate reader (BMG). The reaction rate was calculated using the 1.0 to 2.0 h time frame. Percent inhibition was obtained by comparison of reaction rate with that of a control (i.e. with no test compound). IC50 values were calculated from a series of percent inhibition values determined at a range of inhibitor concentrations using software routines as implemented in the GraphPad Prism software package.

[3] = target: T3, Abl kinase (SEQ ID NO: 1) (Homo sapiens, UniProt P00519); assay: Abl kinase (SEQ ID NO:1) assay, pyruvate kinase/lactate dehydrogenase coupled; details: 2 h preincubation, ATP 500 μM; read-out: Biochemical IC50, Abl Enzyme Assay
T3 construct: purchased deCode Genetics
T3 sequence (P00519 with tags, fused parts or gaps): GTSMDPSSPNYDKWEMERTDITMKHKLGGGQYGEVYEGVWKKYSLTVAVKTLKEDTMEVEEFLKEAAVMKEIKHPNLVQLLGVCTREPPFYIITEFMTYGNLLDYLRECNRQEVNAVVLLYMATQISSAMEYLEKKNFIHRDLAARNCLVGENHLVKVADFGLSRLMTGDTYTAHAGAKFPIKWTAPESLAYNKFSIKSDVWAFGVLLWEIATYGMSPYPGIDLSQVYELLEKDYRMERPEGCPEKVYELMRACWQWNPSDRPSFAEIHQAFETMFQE
Protocol: Abl Kinase (SEQ ID NO:1) Assay
Activity of Abl kinase (SEQ ID NO: 1) was determined by following the production of ADP from the kinase reaction through coupling with the pyruvate kinase/lactate dehydrogenase system (e.g., Schindler, et al. Science (2000) 289, 1938-1942). In this assay, the oxidation of NADH (thus the decrease at A340 nm) was continuously monitored spectrophometrically. The reaction mixture (100 μl) contained Abl kinase (1 nM. Abl from deCode Genetics), peptide substrate (EAIYAAPFAKKK, 0.2 mM), MgCl2 (10 mM), pyruvate kinase (4 units), lactate dehydrogenase (0.7 units), phosphoenol pyruvate (1 mM), and NADH (0.28 mM) in 90 mM Tris buffer containing 0.2% octyl-glucoside and 3.5% DMSO, pH 7.5. Test compounds were incubated with Abl (SEQ ID NO:1) and other reaction reagents at 30° C. for 2 h before ATP (500 μM) was added to start the reaction. The absorption at 340 nm was monitored continuously for 2 hours at 30° C. on Polarstar Optima plate reader (BMG). The reaction rate was calculated using the 1.0 to 2.0 h time frame. Percent inhibition was obtained by comparison of reaction rate with that of a control (i.e. with no test compound). IC50 values were calculated from a series of percent inhibition values determined at a range of inhibitor concentrations using software routines as implemented in the GraphPad Prism software package.

[4] = target: T4, c-Kit kinase (SEQ ID NO:9) (Homo sapiens, UniProt P10721); assay: C-Kit kinase (SEQ ID NO:9) assay, pyruvate kinase/lactate dehydrogenase coupled; details: <2 min preincubation, ATP 200 μM; read-out: Biochemical IC50, c-Kit Enzyme Assay
T4 construct: contained c-Kit (cKIT residues T544-V976, from ProQinase, 5.4 nM); purchased ProQinase
Protocol: C-Kit Kinase (SEQ ID NO:9) Assay
Activity of c-Kit kinase (SEQ ID NO:9) was determined by following the production of ADP from the kinase reaction through coupling with the pyruvate kinase/lactate dehydrogenase system (e.g., Schindler, et al. Science (2000) 289, 1938-1942). In this assay, the oxidation of NADH (thus the decrease at A340 nm) was continuously monitored spectrophometrically. The reaction mixture (100 μl) contained c-Kit (cKIT residues T544-V976, from ProQinase, 5.4 nM), polyE4Y (1 mg/ml), MgCl2 (10 mM), pyruvate kinase (4 units), lactate dehydrogenase (0.7 units), phosphoenol pyruvate (1 mM), and NADH (0.28 mM) in 90 mM Tris buffer containing 0.2% octyl-glucoside and 1% DMSO, pH 7.5. Test compounds were incubated with […] (SEQ ID NO:9) and other reaction reagents at 22° C. for <2 min before ATP (200 μM) was added to start the reaction. The absorption at 340 nm was monitored continuously for 0.5 hours at 30° C. on Polarstar Optima plate reader (BMG). The reaction rate was calculated using the 0 to 0.5 h time frame. Percent inhibition was obtained by comparison of reaction rate with that of a control (i.e. with no test compound). IC50 values were calculated from a series of percent inhibition values determined at a range of inhibitor concentrations using software routines as implemented in the GraphPad Prism software package.

[5] = target: T5, BaF3 cells transfected with T315I p210 BCR-Abl (Homo sapiens, UniProt P00519, T315I, cells depend on it); assay: Ba/F3 p210 T315I whole cell proliferation assay; assay type: cell-based; details: 72 hours, Cell Titer Blue; read-out: Whole Cell Antiproliferation IC50, Ba/F3 p210 T315I whole cell proliferation assay
T5 construct: fused on or other part: P11274 (Breakpoint cluster region protein)
Protocol: as §1, §2

T4 sequence (P10721 with tags, fused parts or gaps): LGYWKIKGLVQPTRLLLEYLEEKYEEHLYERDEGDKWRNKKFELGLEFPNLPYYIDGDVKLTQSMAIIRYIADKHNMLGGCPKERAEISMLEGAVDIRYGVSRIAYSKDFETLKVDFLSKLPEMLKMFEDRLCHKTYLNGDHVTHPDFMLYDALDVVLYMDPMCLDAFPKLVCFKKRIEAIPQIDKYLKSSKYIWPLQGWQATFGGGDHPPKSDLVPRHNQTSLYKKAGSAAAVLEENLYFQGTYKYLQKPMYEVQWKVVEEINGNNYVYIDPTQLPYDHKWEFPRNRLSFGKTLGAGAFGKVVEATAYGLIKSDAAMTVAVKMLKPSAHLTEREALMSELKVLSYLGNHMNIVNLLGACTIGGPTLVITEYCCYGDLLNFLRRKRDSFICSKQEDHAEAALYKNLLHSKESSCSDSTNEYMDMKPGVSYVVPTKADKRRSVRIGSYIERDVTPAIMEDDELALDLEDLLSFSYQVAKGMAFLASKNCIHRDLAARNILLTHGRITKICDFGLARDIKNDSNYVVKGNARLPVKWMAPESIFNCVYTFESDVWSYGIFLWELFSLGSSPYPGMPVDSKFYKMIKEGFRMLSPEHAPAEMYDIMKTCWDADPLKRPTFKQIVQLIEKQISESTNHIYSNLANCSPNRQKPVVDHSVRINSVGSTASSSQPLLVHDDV
T2 sequence (P08581 with tags, fused parts or gaps): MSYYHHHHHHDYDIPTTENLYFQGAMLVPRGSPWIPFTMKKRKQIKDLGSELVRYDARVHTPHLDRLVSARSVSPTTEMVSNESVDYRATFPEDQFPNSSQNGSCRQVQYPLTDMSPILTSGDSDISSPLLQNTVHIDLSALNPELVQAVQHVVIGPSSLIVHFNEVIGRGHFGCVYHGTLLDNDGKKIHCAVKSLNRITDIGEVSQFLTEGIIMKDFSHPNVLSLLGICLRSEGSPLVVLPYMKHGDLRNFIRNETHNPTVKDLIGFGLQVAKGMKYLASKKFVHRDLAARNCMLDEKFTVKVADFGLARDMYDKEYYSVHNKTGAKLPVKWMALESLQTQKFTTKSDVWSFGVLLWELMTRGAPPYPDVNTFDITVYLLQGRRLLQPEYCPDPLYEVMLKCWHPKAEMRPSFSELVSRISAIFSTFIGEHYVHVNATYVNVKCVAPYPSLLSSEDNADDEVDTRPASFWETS

GI50 [1]: < 0.1 µM
IC50 [2]: < 10 µM
IC50 [3]: < 0.1 µM
IC50 [4]: < 0.1 µM
GI50 [5]: < 100 µM
SMILES: Cn1cc(-c2cc(Oc3ccc(NC(=O)Nc4noc5ccccc45)c(F)c3)ccn2)cn1 [Example 24, 1-(benzo[d]isoxazol-3-yl)-3-(2-fluoro-4-(2-(1-methyl-1H-pyrazol-4-yl)pyridin-4-yloxy)phenyl)urea]
